Assay results: ChEMBL document CHEMBL4715685, “Synthetic inhibitor leads of human tropomyosin receptor kinase A (hTrkA)” (RSC Med Chem, 2020)
In brackets after ≈: the same amount, converted by molar mass.

What was measured:
[1] = molecular target: BDNF/NT-3 growth factors receptor (Homo sapiens, UniProt Q16620)
Description: Inhibition of human TRKB by FLIPR assay

[2] = molecular target: T1, High affinity nerve growth factor receptor (Homo sapiens, UniProt P04629)
Description: Inhibition of human TRKA at inactive state assessed as inhibition of substrate phosphorylation using fluorescently-labelled peptide as substrate by caliper assay

[3] = molecular target: T1, High affinity nerve growth factor receptor; remark: listed apart in the source
Description: Inhibition of human TRKA by FLIPR assay

in vitro [4] = conditions: cat, liver microsomes
Description: Half-life in cat liver microsome

[5] = molecular target: T1, High affinity nerve growth factor receptor; remark: listed apart in the source
Description: Inhibition of human TRKA kinase domain by HTRF KinEASE biochemical assay

[6] = molecular target: T1, High affinity nerve growth factor receptor; remark: listed apart in the source
Description: Inhibition of human TRKA at active state assessed as inhibition of substrate phosphorylation using fluorescently-labelled peptide as substrate by caliper assay

in vitro [7] = conditions: dog, liver microsomes
Description: Half-life in dog liver microsome

[8] = molecular target: T1, High affinity nerve growth factor receptor; remark: listed apart in the source
Description: Inhibition of human TRKA at active state by kinetic based analysis

[9] = molecular target: T1, High affinity nerve growth factor receptor; remark: listed apart in the source
Description: Inhibition of human TRKA at inactive state by kinetic based analysis

in vitro [10] = conditions: dog, MDCK
Description: Permeability from apical to basolateral side in dog MDCK cells

in vitro [11] = conditions: dog, MDCK-MDR1
Description: Permeability from basolateral to apical side in dog MDCK cells

T1 sequence (P04629 whole entry): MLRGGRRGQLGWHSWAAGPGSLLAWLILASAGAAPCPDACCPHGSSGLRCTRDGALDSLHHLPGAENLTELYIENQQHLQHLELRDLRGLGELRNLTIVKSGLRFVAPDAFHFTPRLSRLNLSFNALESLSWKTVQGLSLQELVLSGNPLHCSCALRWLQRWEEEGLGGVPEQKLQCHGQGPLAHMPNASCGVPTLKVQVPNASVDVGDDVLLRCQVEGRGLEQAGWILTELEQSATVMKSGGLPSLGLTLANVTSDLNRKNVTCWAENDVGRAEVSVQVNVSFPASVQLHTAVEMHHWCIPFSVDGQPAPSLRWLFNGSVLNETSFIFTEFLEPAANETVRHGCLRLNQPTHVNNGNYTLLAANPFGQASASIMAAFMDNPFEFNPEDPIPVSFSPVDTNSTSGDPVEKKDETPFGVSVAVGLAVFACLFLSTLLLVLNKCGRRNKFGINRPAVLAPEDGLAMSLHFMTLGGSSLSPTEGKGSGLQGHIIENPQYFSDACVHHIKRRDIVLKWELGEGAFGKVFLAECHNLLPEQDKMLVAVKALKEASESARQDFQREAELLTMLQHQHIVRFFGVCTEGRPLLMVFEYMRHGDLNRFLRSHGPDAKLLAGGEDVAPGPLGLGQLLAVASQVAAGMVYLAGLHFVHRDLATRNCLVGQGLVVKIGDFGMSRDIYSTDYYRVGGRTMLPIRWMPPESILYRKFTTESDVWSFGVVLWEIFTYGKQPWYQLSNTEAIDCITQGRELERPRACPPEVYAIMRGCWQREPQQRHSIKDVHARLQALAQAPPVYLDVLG
Sequence of BDNF/NT-3 growth factors receptor (Q16620 whole entry): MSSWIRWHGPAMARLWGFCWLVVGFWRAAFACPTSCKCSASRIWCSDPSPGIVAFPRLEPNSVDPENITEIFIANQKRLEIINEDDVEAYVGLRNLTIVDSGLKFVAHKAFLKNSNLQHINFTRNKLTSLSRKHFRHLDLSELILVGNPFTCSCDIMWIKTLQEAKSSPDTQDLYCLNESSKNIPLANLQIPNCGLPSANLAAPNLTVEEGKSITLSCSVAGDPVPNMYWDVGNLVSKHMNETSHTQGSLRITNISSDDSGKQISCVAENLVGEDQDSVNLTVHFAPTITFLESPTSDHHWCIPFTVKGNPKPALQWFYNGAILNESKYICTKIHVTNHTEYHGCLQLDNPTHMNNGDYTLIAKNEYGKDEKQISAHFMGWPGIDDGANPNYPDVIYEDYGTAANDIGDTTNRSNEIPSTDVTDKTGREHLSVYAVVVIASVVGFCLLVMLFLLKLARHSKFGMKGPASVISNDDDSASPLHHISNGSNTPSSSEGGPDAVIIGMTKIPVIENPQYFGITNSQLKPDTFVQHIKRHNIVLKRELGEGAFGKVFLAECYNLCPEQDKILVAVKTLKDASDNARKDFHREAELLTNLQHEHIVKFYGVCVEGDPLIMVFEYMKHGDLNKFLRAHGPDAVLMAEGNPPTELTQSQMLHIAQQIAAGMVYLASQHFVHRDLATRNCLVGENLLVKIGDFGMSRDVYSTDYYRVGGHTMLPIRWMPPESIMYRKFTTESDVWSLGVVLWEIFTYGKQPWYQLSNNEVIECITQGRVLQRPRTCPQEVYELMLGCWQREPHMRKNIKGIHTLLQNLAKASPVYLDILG
Description for physchem: Kinetic solubility of compound

Row | Compound | IC50 [1] | solubility kinetic (physchem) | IC50 [2] | IC50 [3] | half-life (in vitro [4]) | IC50 [5] | IC50 [6] | half-life (in vitro [7]) | Ki [8] | Ki [9] | Papp A→B (in vitro [10]) | Papp B→A (in vitro [11])
1 | COc1ccc(Cl)cc1NC(=O)Nc1ccc2nc(NC(=O)c3ccccc3)sc2c1 | > 20000 nM | 1.3 µM (≈ 0.589 µg/mL) | > 10000 nM | > 20000 nM | 0.933 h | 178 nM | > 10000 nM | 1.25 h |  |  |  | 
2 | O=C(Nc1ccc(N2CCOCC2)cc1N1CCOCC1)c1cnn(-c2ccccc2)n1 | 15900 nM | 12.7 µM (≈ 5.52 µg/mL) | 21 nM | 170 nM | 0.267 h | 5.2 nM | 45 nM | 1.35 h | 0.4 nM | 1 nM | 4.1 ×10⁻⁶ cm/s | 7.6 ×10⁻⁶ cm/s
3 | NC(=O)c1ccc(-c2nnn(CC(=O)Nc3cc(C(F)(F)F)ccc3-n3cncn3)n2)cc1 | > 20000 nM | 15.9 µM (≈ 7.27 µg/mL) |  | > 20000 nM | 2 h | 47.1 nM |  | 2 h |  |  |  | 
4 | O=C(Nc1ccc(N2CCOCC2)cc1N1CCOCC1)c1cccc(Oc2ccccc2)c1 |  |  | 94 nM |  |  |  | 76 nM |  |  |  |  | 
5 | COc1ccc(-n2ncc3c(=O)n(CC(=O)Nc4cc(C(F)(F)F)ccc4Cl)cnc32)cc1 | > 20000 nM | 3.5 µM (≈ 1.67 µg/mL) |  | 7500 nM | 2 h | 102 nM |  | 2 h |  |  | 4.8 ×10⁻⁶ cm/s | 6.4 ×10⁻⁶ cm/s
